{"source": "patent US5432165A", "about": "“Methods for the treatment of infection caused by Hepatitis B virus (HBV)” (priority 1992, dated 1995)", "key": {"[1]": {"assay": "Stability in an acid environment", "format": "physicochemical", "settings": "such as is found in the human stomach"}, "clinical": {"assay": "clinical", "method": "Tolerance to the oral formulation of FIAU was evaluated in relatively healthy HIV-infected patients with Karnofsky performance scores ≥80 and ≥200 CD4 cells/mm^3. Sequential cohorts of ten patients were evaluated in an open and uncontrolled study design. […] Tolerance was determined with concurrent anti-emetic therapy (prochlorperazine or metoclopramide hydrochloride) as necessary for each patient.\nThis study is an open label, uncontrolled trial. […] Tolerated doses could be studied in an additional five patient cohort of chronic hepatitis B patients, who were potentially more at risk of side effects. A month of post-treatment follow-up was provided for the hepatitis cohorts due to the known propensity of this disease to \"flare\" after therapy.\nAlthough not formally randomized, qualified patients were to be consecutively enrolled without regard to their disease severity, expected tolerance, or potential benefit of the dose being evaluated. Tolerance to a dose was defined as seven or more of the ten patients in a cohort individually meeting predefined tolerance criteria including successful completion of therapy and limits on changes in particular signs, symptoms and laboratory tests. Tolerance was determined with concurrent anti-emetic therapy for those patients requiring it. Criteria and regimens for such therapy were predefined.\nWeight loss was restricted to less than 10% in the past three months and serum CPK was required to be within the normal range.\nPatients were evaluated clinically at the screening visit, and on Days 1, 3, 7, 10, and 14. The hepatitis patients were additionally evaluated on Days 21 and 42. The blood chemistry and urinalysis tests were repeated additionally on Days 2 and 5.\nClinical evaluations consisted of a physical exam, which included a test of lower extremity muscle strength, medical history, systems review, grading of non-laboratory signs and symptoms of toxicity, and listing of concomitant medications. Additionally, at visits with clinical evaluations after Day 1, any adverse experiences were recorded.\nAt the screening visit a chest x-ray, electrocardiogram (ECG), HIV test, T cell profile (CD4 and CD8 counts), serum biochemistry, hematology, urinalysis and stool guaiac tests were obtained in addition to the clinical evaluation. Hematology tests consisted of hemoglobin, hematocrit, RBC, WBC and differential, platelet, reticulocyte count, MCV, MCHC and MCH. Urinalysis tests consisted of color, appearance, pH, specific gravity, bilirubin, protein, glucose, myoglobin, RBCs, WBCs, casts, crystals and bacteria. Serum biochemistry tests consisted of creatinine, uric acid, BUN, total bilirubin, AST, ALT, alkaline phosphatase, LDH, CPK, CPK-MB, glucose, total protein, albumin, globulin, calcium, phosphorus, potassium, sodium, chloride, bicarbonate and aldolase.\nThe Baseline visit (Day 1) consisted of repeating the clinical evaluation, hematology, serum biochemistry, urinalysis, and stool guaiac tests, and T cell profile. Additionally at Baseline, archive plasma samples were taken. Plasma samples were taken two hours after each patient's first dose of FIAU (peak) and right before the second dose (trough). Thereafter, on Days 3, 7 and 14 additional peak and trough samples were obtained by taking the trough sample just before a patient took a dose of FIAU and the peak sample two hours later. These samples were analyzed by HPLC for levels of FIAU and FAU as low as 0.05 μg/ml for either compound.\nThe Day 3 safety profile consisted of the clinical evaluation, hematology, serum biochemistry, urinalysis, stool guaiac tests and plasma samples for peak and trough levels of FIAU and its major metabolite FAU. On Day 7 patients underwent clinical evaluation, an ECG, peak and trough serum samples, T cell profile, and hematology, serum biochemistry, urinalysis, and stool guaiac tests. A clinical evaluation, hematology, serum biochemistry, and urinalysis tests were done on Day 10."}, "hepatitis B virus (HBV)": {"system": "hepatitis B virus (HBV)", "assay": "Effect of oral FIAU on plasma HBV DNA and HBV DNA polymerase in HIV-infected patients with chronic hepatitis B", "format": "in vivo, human", "method": "Effects on hepatitis were evaluated principally by changes in HBV DNA and viral DNA polymerase. Secondary markers were surface antigen and e antigen. The hepatitis tests were done at Baseline and on Days 3, 7, 14, 21 (7 days post-treatment) and 42 (28 days post-treatment).\nOf the 13 \"tolerance\" patients, e.g., non-hepatitis patients, enrolled, all received the study drug and all are included in the safety analysis. […] They had received a single dose of the study drug, and has, therefore, been included in the safety analysis, but excluded from the efficacy analysis. All of the remaining hepatitis patients had sufficient baseline levels of HBV DNA (>20 pg/ml) and viral DNA polymerase (>300 cpm) in their serum to be useful for determining changes associated with FIAU dosing and all completed the full two weeks of dosing. Therefore, the remaining six hepatitis patients were included in both the safety and efficacy analyses.\nThe results of clinical investigations conducted at submilligram per kilogram daily doses of FIAU are presented below. […]"}, "[2]": {"assay": "Peak and trough plasma levels of FIAU and FAU by HPLC", "format": "in vivo, human", "settings": "for concentration at 24 h: FIAU trough plasma concentration", "source_text": "Additionally at Baseline, archive plasma samples were taken."}, "HSV-1": {"system": "HSV-1", "settings": "read-out: in vitro ED90; cited from earlier work"}, "[3]": {"settings": "month long TID dosing of FIAC; cited from earlier work"}, "[4]": {"settings": "1.0 mg/kg-day, non-hepatitis patients, p>0.07"}, "[5]": {"settings": "1.0 mg/kg-day, ten non-hepatitis patients"}, "[6]": {"settings": "0.1 mg/kg-day, two patients with HBV DNA under 1000 pg/ml"}, "[7]": {"settings": "0.5 mg/kg-day, four patients with entry HBV DNA <1000 pg/ml"}, "[8]": {"settings": "human, in vivo, po, 1 mg/kg/day, 24 h"}}, "note": "Entries after “also recorded” stand apart in the source; their conditions may differ.", "data": [{"smiles": "O=c1[nH]c(=O)n([C@@H]2O[C@H](CO)[C@@H](O)[C@@H]2F)cc1I", "note": "[FIAU, 1-(2'-deoxy-2'-fluoro-β-D-arabinofuranosyl)-5-iodouracil]", "values": [{"measurement": "stability in an acid environment", "setting": "[1]", "value": "stable in an acid environment"}, {"measurement": "tolerance of oral FIAU", "setting": "clinical; 1.0 mg/kg-day TID 14 days, HIV-infected patients (ten without chronic hepatitis B)", "value": "adequately tolerated"}, {"measurement": "average AST value at end of therapy", "setting": "clinical; 1.0 mg/kg-day, non-hepatitis patients, baseline 23.4, p≤0.02", "value": 29.6}, {"measurement": "average ALT value at end of therapy", "setting": "clinical; 1.0 mg/kg-day, non-hepatitis patients, baseline 27.1, p≤0.02", "value": 42.3}, {"measurement": "average WBC count at end of therapy", "setting": "clinical; 1.0 mg/kg-day, non-hepatitis patients, baseline average 5,480, p=0.0746", "value": "4,920 cells/mm^3"}, {"measurement": "average loss of CD4 cells", "setting": "clinical; 1.0 mg/kg-day, non-hepatitis patients, non-significant", "value": 64, "unit": "cells/mm^3"}, {"measurement": "decrease in lymphocytes", "setting": "clinical; [4]", "value": "about 300 cells/mm^3"}, {"measurement": "decrease in neutrophils", "setting": "clinical; [4]", "value": "about 300 cells/mm^3"}, {"measurement": "patients requiring anti-emetic therapy", "setting": "clinical; [5]", "value": "four required anti-emetic therapy"}, {"measurement": "patients with mild to moderate headache", "setting": "clinical; [5]", "value": "Five patients complained of mild to moderate headache"}, {"measurement": "patients with mild to moderate nausea", "setting": "clinical; [5]", "value": "Eight patients experienced mild to moderate nausea"}, {"measurement": "tolerance of oral FIAU", "setting": "clinical; 1.7 mg/kg-day, three non-hepatitis patients", "value": "not tolerated; also recorded: All three discontinued the study after two to eight days due to severe fatigue"}, {"measurement": "MTD at 336 h", "setting": "clinical; human, in vivo, po, maximum tolerated dose of oral FIAU, HIV-infected population, TID for two weeks", "value": "≥ 1", "unit": "mg/kg/day"}, {"measurement": "average reduction of serum HBV DNA at Day 3 and One Week visits", "setting": "hepatitis B virus (HBV); [6]", "value": 60, "unit": "%"}, {"measurement": "average reduction of serum HBV DNA by end of therapy at two weeks", "setting": "hepatitis B virus (HBV); [6]", "value": 93, "unit": "%"}, {"measurement": "suppression of serum HBV DNA one week post-treatment", "setting": "hepatitis B virus (HBV); [6]", "value": 86, "unit": "%"}, {"measurement": "drop of HBV DNA by the end of therapy", "setting": "hepatitis B virus (HBV); 0.1 mg/kg-day, two patients with baseline over 1000 pg/ml", "value": "≤ 25", "unit": "%"}, {"measurement": "average HBV DNA level, percent of baseline, end of one week of dosing", "setting": "hepatitis B virus (HBV); [7]", "value": "less than 20%"}, {"measurement": "average HBV DNA level, percent of baseline, end of two week treatment", "setting": "hepatitis B virus (HBV); [7]", "value": "less than 10%"}, {"measurement": "drop of average serum HBV DNA after the first two days of therapy", "setting": "hepatitis B virus (HBV); [7]", "value": 61, "unit": "%"}, {"measurement": "suppression of average HBV DNA one month post-treatment", "setting": "hepatitis B virus (HBV); [7]", "value": "over 75%"}, {"measurement": "drop of serum HBV DNA in one week of therapy", "setting": "hepatitis B virus (HBV); 0.5 mg/kg-day, single patient with baseline above 1000 pg/ml", "value": 83, "unit": "%"}, {"measurement": "effect on plasma HBV DNA and viral DNA polymerase levels", "setting": "hepatitis B virus (HBV); 1.0 mg/kg-day", "value": "rapid, consistent, profound and prolonged effect"}, {"measurement": "surface antigen and e antigen status", "setting": "hepatitis B virus (HBV); 1.0 mg/kg-day", "value": "remained positive in all patients to date, with one reported seroreversion of e antigen in Patient 401 approximately 23 weeks post-treatment"}, {"measurement": "continuing suppression of HBV DNA polymerase in serum", "setting": "hepatitis B virus (HBV); 1.0 mg/kg-day, five of the six patients", "value": "> 80", "unit": "%"}, {"measurement": "clearing of HBV DNA from the plasma", "setting": "hepatitis B virus (HBV); 1.0 mg/kg-day, four weeks after therapy", "value": "two of these became totally negative; also recorded: Two showed a complete clearing of HBV DNA from the plasma"}, {"measurement": "average decrease of HBV DNA between Baseline (Day 1) and Day 3", "setting": "hepatitis B virus (HBV); 1.0 mg/kg-day, six patients", "value": "over 70%"}, {"measurement": "reduction in plasma HBV DNA by the end of therapy", "setting": "hepatitis B virus (HBV); 1.0 mg/kg-day, two weeks, five of the six patients", "value": "more than 90%"}, {"measurement": "FIAU peak plasma concentration, range maximum", "setting": "[2]; 1.0 mg/kg-day, steady state, Days 3-14", "value": 1.66, "unit": "µg/mL"}, {"measurement": "accumulation in the plasma with continued dosing", "setting": "[2]; FIAU 1.0 mg/kg-day, 14 days", "value": "Neither FIAU nor FAU tended to accumulate; also recorded: Neither compound tended to accumulate"}, {"measurement": "FIAU trough plasma value, typical", "setting": "[2]; human, in vivo, po, 1 mg/kg/day", "value": "under 0.2 μg/ml"}, {"measurement": "FIAU peak plasma concentration, mean", "setting": "[2]; [8]", "value": 0.58, "unit": "µg/mL"}, {"measurement": "FIAU trough plasma concentration, mean", "setting": "[2]; [8]", "value": 0.05, "unit": "µg/mL"}, {"measurement": "Cmax at 24 h", "setting": "[2]; human, in vivo, po, 1 mg/kg/day, FIAU peak plasma concentration, mean", "value": 0.58, "unit": "µg/mL"}, {"measurement": "Cmax at 2 h", "setting": "[2]; human, in vivo, po, 1 mg/kg/day, FIAU peak plasma value at steady state, average", "value": "~1", "unit": "µg/mL"}, {"measurement": "concentration at 24 h", "setting": "[2]; human, in vivo, po, 1 mg/kg/day, mean", "value": 0.05, "unit": "µg/mL"}, {"measurement": "concentration at 24 h", "setting": "[2]; human, in vivo, po, 1 mg/kg/day, range maximum", "value": 0.13, "unit": "µg/mL"}, {"measurement": "EC90", "setting": "HSV-1", "value": "~0.05", "unit": "µM"}, {"measurement": "accumulation in the plasma", "setting": "[3]", "value": "neither FIAC, FIAU, or their metabolites accumulated in the plasma"}]}]}
